Data on two substances can be found in US20130252821A1, “METHODS AND COMPOSITIONS FOR THE TREATMENT AND DIAGNOSIS OF DISEASES CHARACTERIZED BY VASCULAR LEAK, HYPOTENSION, OR A PROCOAGULANT STATE” (Beth Israel Deaconess Medical Center, Inc., priority 2005, published 2013).

One data set deals with VEGF. As to the kind of experiment: Serial free VEGF levels in patients on HD IL-2. The data set is classed as in vivo, human. Particulars: four patients, single bevacizumab infusion two weeks prior to HD IL-2. The source says:
Over a 6 month period at Beth Israel Deaconess Medical Center we prospectively collected discarded serum and plasma samples from oncology patients receiving high dose IL-2. […] After detailing these promising results, we then collected bloods before IL-2 infusion and with each successive days morning labs. Whenever possible, we also obtained discarded blood from all follow up outpatient appointments. All identifying information was removed and data was encoded to protect patient privacy. Clinical data was collected on each patient by chart review. This study was approved by the institutional IRB.

The next data set concerns Rac1. As to the kind of experiment: Rac1 activity assay (pull-down). The data set is classed as cell-based, human. Particulars: p190RhoGAP siRNA. How it is done:
(§1) These were performed and quantified using the commercially available kit according to the manufacturer's instruction (Cytoskeleton, Denver, Colo.). After signal starvation, HMVEC-L were treated with vehicle, Ang-1 (100 ng/ml) with or without inhibitor for the indicated time and harvested with lysis buffer. Following a brief centrifugation to remove cell debris, lysates from the cells containing equivalent protein concentrations were incubated for 60 minutes with 40 μL slurry of a GST-fusion protein composed of Rac1 or RhoA effector proteins coupled to agarose beads. After washing with lysis buffer, samples were subjected to immunoblotting and detected with anti-Rac1 or anti-RhoA antibody (Santa Cruz Biotechnology, Santa Cruz, Calif.). Whole cell lysates were also run to determine the total amount of Rac1 or RhoA protein.

In the next data set the test system is HMVEC-L monolayer. As to the kind of experiment: Measurement of endothelial permeability in vitro (FITC-albumin). The data set is classed as cell-based, human. Particulars: p190RhoGAP siRNA. The method, then: Coster Transwell membranes (Corning Inc. Corning, N.Y.) were coated with 0.5% Gelatin and cells were grown until confluence. Vehicle or proteins with FITC-albumin (1 mg/ml) was added to the luminal chamber for 4 hours, and samples were taken from both the luminal and abluminal chamber for fluorometry analysis. The readings were converted with the use of a standard curve to albumin concentration. These concentrations were then used in the following equation to determine the permeability coefficient of albumin (Pa).
(§2) [A] is abluminal concentration; t is time in seconds; A is area of membrane in cm^2; V is volume of abluminal chamber; and [L] is luminal concentration. siRNA Transfection: HMVEC-Ls were seeded and control small interfering RNA (siRNA) (Ambion, Ausin, Tex.) or siRNA directed to human p190RhoGAP (5′-[…]-3′ SEQ ID NO: 5 and 5′-[…]-3′ SEQ ID NO: 6) was transfected using SilentFect Lipid reagent (Bio-Rad) according to the manufacturer's instructions. The cells were used for each experiment 3 days after transfection. Almost 90-100% cells were transfected with siRNA (checked by fluorescent labeled siRNA). Down-regulation of p190RhoGAP was verified by immunoblotting. We tested two different siRNA for the experiment and obtained similar results.

The test system of data set [1] is p190RhoGAP. Kind of data set: In vivo delivery of siRNA, p190RhoGAP in mouse lung (Western). Particulars: 10 μg siRNA, hydrodynamic tail vein delivery. How it is done:
Mice were treated as above and lungs were harvested, fixed in 10% formalin, embedded in paraffin, sectioned, and stained with hematoxilin and eosin. In Vivo Delivery of siRNA: Delivery of siRNA into mice was performed by TransIT® Hydrodynamic delivery solution (Mires, Madision, Wis.) per the manufacturer's instruction. Mice were injected with either 10 μg control siRNA or 10 μg p190RhoGAP siRNA in 2 nil delivery solution injected into the tail vein over 7 seconds. Four days later, p190RhoGAP knockdown was confirmed by lysing organs in RIPA buffer and performing Western analysis as outlined above. In vivo permeability and histological examination were performed as described above.

Data set [2] has as its system p190RhoGAP. As to the kind of experiment: siRNA knockdown of p190RhoGAP in HMVEC-L (immunoblot). The class given is cell-based, human. The method, then: as §2
A general note: A western blot detects proteins with antibodies after separation by electrophoresis.

Another data set has as its system RhoA. Kind of data set: Rho activity assay (pull-down) in HMVEC-L. The class given is cell-based, human. The conditions noted are these: p190RhoGAP siRNA. The method, then:
as §1

The subject of data set [3] is mice (female FVB strain), lung. Kind of data set: In vivo permeability assay (Evans blue, LPS). Set-up: species or system mouse. The conditions noted are these: p190RhoGAP siRNA, endotoxin plus Ang-1. The method, then: Mice (8-12 weeks old, female FVB strain) were pretreated with Ang-1 (10 mcg, ip). 8 hours after the first Ang-1 injection, the second dose of Ang-1 (10 mcg, ip) and LPS (100 μg, ip) were co-injected. Lung permeability was assessed 16 hours after the second injection. Mice were anesthetized with Avertin (2,2,2-Tribromoethanol) and 2% Evans blue (50 μl) was then injected into the retro-orbital sinus. Ten minutes after Evans blue injection, mice were sacrificed and perfused with PBS with 2 mM EDTA for 10 minutes through a cannula placed in the right ventricle. […] Organs were then harvested and homogenized in 1.5 nil formamide. Evans blue was extracted by incubating the samples at 70° C. for 24 hours, and the concentration of Evans blue was estimated by dual-wavelength spectrophotometer (620 and 740 nm). The following formula was used to correct optical densities (E) for contamination with heme pigments: E620 (corrected)=E620−(1.426XE740+0.030).

On to “bevacizumab: a neutralizing antibody to VEGF”, for which, in the data set on VEGF, the “free VEGF levels” value is listed as “low throughout protocol”.
“p190RhoGAP siRNA: siRNA directed to human p190RhoGAP (SEQ ID NO: 5 and 6) (chain 1 GGAUUGUGUGGAAUGUAAG; chain 2 CUUACAUUCCACACAAUCC; listed as RNA, chemistry not given here) [reference compound]”: the “effect on Ang-1-induced Rac1 activation” value in the data set on Rac1 is on record as “did not affect”. Besides, the “effect on basal permeability” value with HMVEC-L monolayer is “little effect”. Further, in the data set on HMVEC-L monolayer (endotoxin plus Ang-1), the “effect on rescue by Ang-1” value is “prevent the rescue effect of Ang-1”. In the data set with p190RhoGAP [1], the “p190RhoGAP expression in lung tissue” value was “diminished p190RHoGAP expression”. Moreover, the “block of p190RhoGAP expression” value in the data set with p190RhoGAP [2] stood at 90%. In addition, the “effect on Ang-1-induced RhoA inhibition” value in the data set with RhoA was “abolish”. Also, the “effect on protection by Ang-1 in the lung” value in data set [3] is reported as “sufficient to block the protective effect of Ang-1”.
